Columns and labels:
[1] = target: T1, HPK1 (Homo sapiens (Human), UniProt Q92918); test: HPK1 enzyme activity detection (1 mM ATP system), ADP-Glo, Pharmacological Experiment 1; type: biochemical
Method: Pharmacological Experiment 1: HPK1 Enzyme Activity Detection (1 mM ATP System)
• (1) Take ADP-GloTMKinase Assay Kit (Promega, Cat. No. V9102) to prepare 4× kinase buffer. • (2) Compound gradient dilution: The compound to be tested is diluted 3-fold, and 11 gradient concentrations are set, and each concentration is set for duplicate well detection. Serial dilutions were made in a 384-well plate to the corresponding 100×final concentration solution, and then 0.1 μL was transferred to the 384-well reaction plate for testing using Echo. Transfer 0.1 μL of 100% DMSO to the smallest and largest wells. • (3) Prepare HPK1 enzyme working solution using 4× kinase buffer. • (4) Add 5 μL of HPK1 enzyme working solution to each well and 5 μL of 1× kinase buffer to the smallest well. Centrifuge at 1000 rpm for 1 min and incubate at 25° C. for 15 min. • (5) During the incubation period, prepare the substrate working solution using 4× kinase buffer. • (6) Add 5 μL of substrate working solution containing 1 mM ATP to each well of the reaction plate, centrifuge at 1000 rpm for 1 min, and incubate at 25° C. for 60 min. • (7) At the end of incubation, add 5 μL of ADP Glo reagent to each well. Centrifuge at 1000 rpm for 1 min and incubate at 25° C. for 60 min. • (8) Add 10 μL of detection solution to each well, centrifuge at 1000 rpm for 1 min, and incubate at 25° C. for 60 min. • (9) Read using EnVision.
Inhibition rate calculation formula:
[formula] • Vehicle: Reading value of DMSO control well • Blank: No enzyme well reading • Largest well: Reading value of DMSO control well • Minimum well: No enzyme well reading
The log value of the concentration was used as the X-axis and the percentage inhibition rate was used as the Y-axis. The “log (inhibitor) vs. response—variable slope” of the analysis software GraphPad Prism 5 was used to fit the dose-effect curve to obtain the IC 50 value of the compound's inhibition of kinase binding.
See Table 1 for the enzymatic IC 50 data of the example compounds on HPK1.

[2] = target: T1, HPK1; test: HPK1 enzyme activity detection (1 mM ATP system), ADP-Glo with MBP substrate, Pharmacological Experiment 2; type: biochemical
Outline: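 Compound in DMSO preincubated with HPK1 for 15 min at 25 °C, then reaction started with ATP (1 mM system) and MBP substrate for 60 min at 25 °C. ADP formed quantified by ADP-Glo luminescence; IC50 derived from percentage inhibition.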

[3] = target: GLK (Homo sapiens (Human), UniProt Q8IVH8); test: GLK kinase assay (1 mM ATP system), ADP-Glo; type: biochemical
Outline: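 GLK kinase reaction with 1 mM ATP and MBP substrate ran 60 min at 25 °C after 15 min preincubation of enzyme with compound. ADP formed was detected by ADP-Glo luminescence; percent inhibition used to derive IC50.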

[4] = tested on: human peripheral blood mononuclear cells; test: Detection of IFN-γ secretion in human peripheral blood mononuclear cells (anti-CD3/CD28 beads, ELISA); type: cell-based; details: for Maximum induction factor: IFN-γ secretion, human PBMC; for EC3x: concentration for IFN-γ secretion of human PBMC to reach 3 times the baseline, 3 days
Method: Pharmacological Experiment 4: Detection of IFN-γ Secretion in Human Peripheral Blood Monocytes
• (1) Take human peripheral blood mononuclear cells frozen in liquid nitrogen, thaw in a 37° C. water bath, add 5 mL of preheated RPMI-1640 complete medium (containing 10% fetal bovine serum and penicillin/streptomycin), centrifuge at 500 g for 10 minutes, and discard the supernatant; • (2) Resuspend the cells in RPMI-1640 complete medium, adjust the density to 5×10^6 cells/mL, inoculate in a low-adhesion 6-well plate (Corning, 3471), and culture at 37° C. for 2 days; • (3) Collect cultured human peripheral blood mononuclear cells, centrifuge at 500 g for 10 min, and discard the supernatant; • (4) Resuspend the cells in RPMI-1640 complete medium, adjust the density to 1×10^6 cells/mL, and inoculate them in a round-bottom 96-well plate (Jet Biofil, TCP-002-096), with 100 μL per well; • (5) Add 50 μL of the test compound to each well and incubate at 37° C. for 30 min; • (6) Take human anti-CD3/CD28 magnetic beads (Miltenyi, 130-091-441), wash once with RPMI-1640 complete medium, and adjust the density to 0.5×106 beads/mL for later use; • (7) After the compound incubation, 50 μL of anti-human CD3/CD28 magnetic beads were added to each well and cultured at 37° C. for 3 days, • (8) The cell culture supernatant was obtained and the IFN-γ secretion was detected using the Human IFN-gamma DuoSet ELISA kit (R&D, DY285B-05); • (9) The log value of concentration was used as the X-axis and the IFN-γ secretion amount was used as the Y-axis. The “log (agonist) vs. response−variable slope” equation of the analysis software GraphPad Prism 7 was used to fit the dose-effect curve, thereby obtaining the EC3x value and the maximum induction factor of the compound for the secretion of IFN-γ from human peripheral blood mononuclear cells to reach 3 times the baseline.

[5] = tested on: Jurkat cells; test: Jurkat IL-2 secretion detection (anti-CD3/CD28 beads, ELISA); type: cell-based, human; details: for Maximum induction factor: IL-2 secretion, Jurkat cells; for EC3x: concentration for IL-2 secretion of Jurkat cells to reach 3 times the baseline, 20 h
Method: Pharmacological Experiment 5: Jurkat IL-2 Secretion Detection
• (1) Take the cultured Jurkat cells, adjust the density to 1×10^6 cells/mL, and inoculate them in a flat-bottom […] plate (Jet Biofil, TCP011096), with 100 μL per well, • (2) Add 50 μL of the test compound to each well and incubate at 37° C. for 30 min; • (3) Take human anti-CD3/CD28 magnetic beads (Miltenyi, 130-091-441), wash once with RPMI-1640 complete medium, and adjust the density to 4×106 beads/mL for later use; • (4) After the compound incubation, 50 μL of anti-human CD3/CD28 magnetic beads were added to each well and cultured at 37° C. for 20 h, • (5) The cell culture supernatant was obtained and the IL-2 secretion was detected using the Human IL-2 DuoSet ELISA kit (R&D, DY008); • (6) The log value of the concentration was used as the X-axis and the IL-2 secretion was used as the Y-axis. The “log (agonist) vs. response-variable slope” equation of the analysis software GraphPad Prism 7 was used to fit the dose-effect curve, thereby obtaining the […] and the […]

[6] = PK study of compound in dogs; type: in vivo; details: Beagle dog
Method: Pharmacological Experiment 6: PK Study of Compound in Dogs The compound was mixed with a solvent of saline or 10% DMSO/5% Solutol/85% saline or 10% DMSO/10% Solutol/80% saline (specific solvents are shown in the table below), vortexed and sonicated to prepare a clear oral solution. […] The drug concentration was analyzed by LC-MS/MS method, and the pharmacokinetic parameters were calculated using Phoenix WinNolin software (Pharsight, USA).

[7] = PK study of compound in monkeys; type: in vivo; details: crab-eating monkey
Method: Pharmacological Experiment 7: PK Study of Compound in Monkeys
The drug concentration was analyzed by LC-MS/MS method, and the pharmacokinetic parameters were calculated using Phoenix WinNolin software (Pharsight, USA).

[8] = tested on: mouse colon cancer cell CT26; test: Efficacy in CT26 CDX model mice (subcutaneous homologous transplant tumor); type: in vivo, Balb/c mouse; details: 75 mg/kg PO QD, after 21 days
Method: Pharmacological Experiment 8; Study on the Efficacy of the Compound in CT26CDX Model Mice […] The first group (G1) was a vehicle control group (10% propylene glycol/5% HS15/85% glucose). The second group (G2) was the control compound D1-administered group. […] Note: PO stands for oral gavage, QD stands for once daily dosing, and BID stands for twice daily dosing. Tumor size and mouse body weight were measured twice a week during the experiment, and the weight of the animals on that day was used as a reference for each drug administration. The tumor size was measured by using a vernier caliper to measure the length (a) and width (b) of the tumor. The tumor volume (TV) was calculated using the following formula: TV=a*b2/2 After 21 days of administration, the tumor growth inhibition rate (TGI) of each administration group is shown in Table 10.

[9] = PO 5 mg/kg, DMSO/Solutol/saline

GLK, sequence (Q8IVH8 whole entry, species assumed): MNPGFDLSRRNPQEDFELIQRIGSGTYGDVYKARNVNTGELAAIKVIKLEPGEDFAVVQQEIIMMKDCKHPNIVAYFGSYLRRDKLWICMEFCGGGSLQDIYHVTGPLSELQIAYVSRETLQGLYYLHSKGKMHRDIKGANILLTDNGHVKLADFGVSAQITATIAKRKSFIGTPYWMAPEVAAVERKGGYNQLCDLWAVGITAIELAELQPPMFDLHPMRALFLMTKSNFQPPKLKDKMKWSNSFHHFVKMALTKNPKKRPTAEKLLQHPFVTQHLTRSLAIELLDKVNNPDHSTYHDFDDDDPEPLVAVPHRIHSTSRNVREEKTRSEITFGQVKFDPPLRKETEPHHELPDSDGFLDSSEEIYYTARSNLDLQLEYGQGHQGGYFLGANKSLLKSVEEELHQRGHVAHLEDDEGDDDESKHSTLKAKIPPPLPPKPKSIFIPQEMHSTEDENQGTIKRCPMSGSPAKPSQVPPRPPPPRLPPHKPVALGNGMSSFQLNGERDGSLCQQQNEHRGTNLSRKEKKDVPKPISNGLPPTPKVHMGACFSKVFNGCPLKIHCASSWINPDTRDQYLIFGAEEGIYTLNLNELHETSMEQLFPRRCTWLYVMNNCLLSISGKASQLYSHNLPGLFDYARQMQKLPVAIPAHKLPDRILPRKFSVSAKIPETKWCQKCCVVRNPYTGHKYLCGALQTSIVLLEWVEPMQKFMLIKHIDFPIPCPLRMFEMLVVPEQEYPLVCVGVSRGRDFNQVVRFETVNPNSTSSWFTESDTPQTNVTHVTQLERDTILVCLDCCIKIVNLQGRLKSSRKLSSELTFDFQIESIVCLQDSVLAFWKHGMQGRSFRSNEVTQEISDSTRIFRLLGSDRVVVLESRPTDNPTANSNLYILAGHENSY
T1 sequence (Q92918 whole entry, species assumed): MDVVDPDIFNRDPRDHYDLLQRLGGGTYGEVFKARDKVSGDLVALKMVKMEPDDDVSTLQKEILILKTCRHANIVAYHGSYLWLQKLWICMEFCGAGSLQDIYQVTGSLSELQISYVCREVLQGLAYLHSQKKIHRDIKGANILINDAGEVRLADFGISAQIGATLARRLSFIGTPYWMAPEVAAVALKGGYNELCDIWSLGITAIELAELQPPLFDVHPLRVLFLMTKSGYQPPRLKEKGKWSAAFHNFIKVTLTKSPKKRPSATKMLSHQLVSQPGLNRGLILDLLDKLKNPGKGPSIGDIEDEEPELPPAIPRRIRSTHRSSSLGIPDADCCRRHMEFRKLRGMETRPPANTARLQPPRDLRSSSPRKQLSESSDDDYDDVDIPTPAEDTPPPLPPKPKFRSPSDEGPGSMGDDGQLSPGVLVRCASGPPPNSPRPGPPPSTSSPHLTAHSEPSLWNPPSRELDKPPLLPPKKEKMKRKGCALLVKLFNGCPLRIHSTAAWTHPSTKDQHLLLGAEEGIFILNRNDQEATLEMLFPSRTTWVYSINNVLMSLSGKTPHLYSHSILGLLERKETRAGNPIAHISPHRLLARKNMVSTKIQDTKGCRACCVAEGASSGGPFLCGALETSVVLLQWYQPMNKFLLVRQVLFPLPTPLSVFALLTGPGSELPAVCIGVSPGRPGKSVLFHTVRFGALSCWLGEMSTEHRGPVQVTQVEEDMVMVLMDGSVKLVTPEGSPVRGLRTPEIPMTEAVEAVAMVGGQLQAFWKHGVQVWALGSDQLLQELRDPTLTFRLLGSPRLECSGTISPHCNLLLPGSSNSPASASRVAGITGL

SMILES	IC50 [1] [nM]	IC50 [2] [nM]	IC50 [3] [nM]	Maximum induction factor [4]	EC3x [4] [nM]	Maximum induction factor [5]	EC3x [5] [nM]	other results
CN(C)C1CCC2(CCOCC2)c2ccc(Nc3ccc(-c4cnc5cc(F)ccn45)c4c3C(=O)NC4)cc21 (stereo not drawn) [Compound 1]	61.2	–	–	–	–	–	–	–
CN(C)C1CC2(CCOCC2)c2ccc(Nc3ccc(-c4cnc5cc(F)ccn45)c4c3C(=O)NC4)nc21 (stereo not drawn) [Compound 2, 7-(7-(DIMETHYLAMINO)-2′,3′,5′,6,6′,7-HEXAHYDROSPIRO[CYCLOPENTYL]PYRIDINE-5,4′-PYRAN]-2-YL)AMINO)-4 (7-FLUOROIMIDAZOLE[1,2-A]PYRIDIN-3-YL)ISOINDOL-1-ONE]	7.01	11.2	1170	5.9	69	10	345	–
CN(C)C1CC2(CCOCC2)c2ccc(Nc3ccc(-c4cnc5cc(F)ccn45)c4c3C(=O)NC4)cc21 (stereo not drawn) [Compound 9]	205	–	–	–	–	–	–	–
Cc1cc(Nc2cnc(-c3ccnc4c3ccn4C)c3c2C(=O)NC3)cc2c1C1(CCOCC1)CN(C)C2 [Compound 14]	54.8	–	–	–	–	–	–	–
Cc1cc(Nc2ccc(-c3cnc4cc(F)ccn34)c3c2C(=O)NC3)cc2c1C1(CCOCC1)CN(C)C2 [Compound 15]	6.14	–	–	–	–	–	–	–
Cc1cc(Nc2ccc(-c3cnc4cc(F)ccn34)c3c2C(=O)NC3)cc2c1C1(CC1)CN(C)C2 [Compound 16]	20.6	–	–	–	–	–	–	–
O=C1NCc2c(-c3cnc4cc(F)ccn34)ccc(Nc3ccc4c(n3)C(N3CCCC3)CC43CCOCC3)c21 (stereo not drawn) [Compound 40, 4-(7-FLUOROIMIDAZO[1,2-A]PYRIDIN-3-YL)-7-((7-(PYRROLIDIN-1-YL)-2′,3′,5′,6,6′,7-HEXAHYDROSPIRO[B]PYRIDIN-5,4′-PYRAN]-2-YL)AMINO)ISOINDOLIN-1-ONE]	–	4.8	–	–	–	11.5	163	–
CC(C)NC1CC2(CCOCC2)c2ccc(Nc3ccc(-c4cnc5cc(F)ccn45)c4c3C(=O)NC4)nc21 (stereo not drawn) [Compound 104]	–	3.49	552	–	–	8.3	172	–
O=C1NCc2c(-c3cnc4cc(F)ccn34)ccc(Nc3ccc4c(n3)C(NC3CCOCC3)CC43CCOCC3)c21 (stereo not drawn) [Compound 108]	–	3.29	1050	–	–	8.4	448	–
CN(C)[C@@H]1CC2(CCOCC2)c2ccc(Nc3ccc(-c4cnc5cc(OC(F)F)ccn45)c4c3C(=O)NC4)nc21 [Compound 158A, (R)-4-(7-(DIFLUOROMETHOXY)IMIDAZOL 1,2-A]PYRIDIN-3-YL)-7-((7-DIMETHYLAMINO)-2′,3′,5′,6,6′,7-HEXAHYDROSPIRO[CYCLOPENTADIENYL[B]PYRIDINE-54′-PYRAN]-2-YL)AMINO)ISOINDOLIN-1-ONE]	–	3	206	10.8	167	–	–	Bioavailability F % [6, 9]: 43%; PO Plasma AUC [6, 9]: 2704 ng·h/mL; T1/2 [6, 9]: 6.06 h
CN(C)C1CC2(CCOCC2)c2ccc(Nc3ccc(-c4cnc5cc(C6CC6)ccn45)c4c3C(=O)NC4)nc21 (stereo not drawn) [Compound 164, 4-(7-CYCLOPROPYLIMIDAZO[1,2-A]PYRIDIN-3-YL)-7-((7-(DIMETHYLAMINO)-2′,3′,5′,6,6′,7-HEXAHYDROSPIRO[CYCLOPENTANE[B]PYRIDINE-5,4′-PYRAN]-2-YL)AMINO)ISOINDOL-1-ONE]	–	10.6	105	9.2	458	–	–	–
CN(C)Cc1nc(Nc2ccc(-c3cnc4cc(F)ccn34)c3c2C(=O)NC3)ccc1C1CCOCC1 [Compound D1, reference compound]	–	–	–	4.6	528	8.1	544	AUC ([6]; plasma, PO 10 mg/kg, saline): 396 ng·h/mL; half-life ([6]; plasma, PO 10 mg/kg, saline): 3.19 h; bioavailability ([6]; plasma, PO 10 mg/kg, saline, read-out: Bioavailability F %): 11.6%; IV Plasma Cl_obs ([7]; IV 1 mg/kg): 17.6 mL/min/kg; half-life ([7]; column beside IV plasma Cl_obs (IV 1 mg/kg)): 4.01 h; AUC ([7]; plasma, PO 5 mg/kg): 1720 ng·h/mL; TGI [8]: 38%

Reference: US20250361241A1, “HPK1 INHIBITOR AND MEDICAL USE THEREOF” (Betta Pharmaceuticals Co., Ltd., priority 2022, published 2025)
